From patent US20100093662A1, “NOVEL AMPHIPHILIC CYCLODEXTRIN DERIVATIVES” (CENTRE NATIONAL DE LA RECHERCHE SCIENTIFIQUE-CNRS-, priority 2006, published 2010)

Assays:
plasmid pTG11236 = experiment: Electrophoretic analysis of nanoparticles of DNA (agarose gel, ethidium bromide); format: binding; conditions: for accessibility of the DNA at the intercalation by ethidium bromide: N/P ratio=5, plasmid pTG11236
Experimental: The plasmid pTG11236 (pCMV-SV40-luciferase-SV40 pA), used in the preparation of DNA complexes and for transfection tests is a plasmid with 5739 pairs of bases. The quantities of compounds used are calculated to obtain a DNA concentration of 0.1 mg·mL^−1 (303 μM in phosphate equivalent) and the desired Nitrogen/Phosphate (N/P) ratios. Tests for values of N/P=5, 10, 30 and 50 were carried out both for compound no. 8 and for compound no. 16. As a reference transfection formulation (positive control), we used polyplexes formulated with the same plasmid and the polycationic polymer polyethyleneimine (branched PEI, 25 kDa), and naked DNA as a negative control.
For the preparation of the complexes, the DNA is diluted in HEPES (20 mM, pH 7.4) until a final concentration of 303 μM in phosphate equivalent, then the quantity of compound no. 8 or no. 16 necessary, obtained from a stock solution of 20 mg·mL^−1 in DMSO-water 1:2 (v/v) is added in order to obtain the desired N/P ratio. For the PEI, a 0.1M stock solution in water is used. The mixtures are vortexed for 10 sec and used in the characterisation and for the transfection tests, as described below.
10 μl of each formulation of complexes prepared as mentioned above are diluted once in the loaded buffer (glycerol+bromophenol blue+Tris-acetate-EDTA or TAE). 1 μl of this solution are deposited on a gel with 8% agarose. The rest of the sample is diluted once with a decomplexing solution with 8% sodium dodecyl sulfate (SDS) in TAE, then 10 μl are also deposited on a gel. The electrophoresis is carried out for […] at 50V. The gel is then developed with ethidium bromide (Sigma) in TAE ([…] of a solution of ethidium bromide with a concentration of 10 mg·mL^−1 in 200 mL of TAE). The DNA is also visualised and photographed with an UV transilluminator. FIGS. 2 and 3 are photos of electrophoretic analyses, carried out on agarose gel in the presence of ethidium bromide, of DNA complexes/nanoparticles obtained with compound no. 8 according to an N/P ratio of 5, 10, 30 and 50 respectively.

BNL-CL2 cells [1] = experiment: In vitro transfection of nanoparticles of DNA, luciferase assay; format: cell-based, Murine; conditions: 0.5 μg of DNA per well (FIG. 6: N/P=10)
Experimental: (§1) Murine embryo cells BNL-CL2 are grown in 96-well plates until a density of 2×10^4 cells/well in a DMEM culture medium (Dulbelcco's Modified Eagle Medium, Gibco-BRL) containing 10% foetal calf serum (SVF; Sigma) at 37° C. in a humid atmosphere with a proportion of 5% CO2/95% air.
(§2) The complexes between compound no. 8, no. 16 or polyethyleneimine (PEI), and plasmid pTG11236 are diluted in 100 μl of DMEM so as to obtain 0.5 μg of DNA in the well.
(§3) The culture medium is removed and replaced by 100 μl of solution of nanoparticle complex/DNA in DMEM. After 4 hrs and 24 hrs, 50 and 100 μL of DMEM containing 30% and 10% of FCS, respectively, are added. After 48 hrs, the transfection is stopped, the culture medium is removed and the cells are washed with PBS (2×100 μL), then lysed with 50 μL of lysis buffer (Promega, Charbonnières, France). The lysates are frozen at −32° C. until the luciferase and protein assay.
The luciferase assay is used to assess the efficacy of transfection. This assay is based on a chimioluminescence reaction whose principle is based on oxydation by luciferase of its substrate (luciferine) with concomitant production of a photon. The activity of the luciferase is measured with a Biolumat LB96P WMP100 apparatus (BERTHOLD) for 10 sec after the injection of 50 μl of reagent containing luciferine (Prmèga assay kit) in each well containing 10 μl of cell extract. […]

BNL-CL2 cells [2] = experiment: Cell viability after transfection (BCA protein assay); format: cell-based, Murine; conditions: for cell viability compared with PEI/DNA polyplexes at the same N/P ratios: N/P ratios>10; for cell viability after transfection: complexes with pTG11236, N/P 5 to 50, 0.5 μg plasmid/well
Experimental: as §1, §2, §3
The protein assay is based on the BCA test (Pierce). The protein assay is carried out on 15 μl of cell lysate to which are added 300 μl of Pierce reagent (BCA Protein Assay Reagent). It consists of a colorimetric assay which is carried out with UV/visible MRX spectrophotometry (DYNEX Technologies). For each assay, a standard series is carried out with BSA (Bovine Serum Albumin, BIO-RAD), of 0 to 30 μg per well. The reading is taken at 570 nm, after 30 […] at ambient temperature. With this standard BSA series, the OD may be expressed in mg of protein/well.
The ratio of the quantities of proteins corresponding to the transfected and non transfected (100% cell viability) cells is used to assess the cell viability of the complexes (expressed in %).
All of the formulations are tested at least 3 times. The results obtained were processed using STATGRAPHICS Plus5.1 software (trade mark). Anova analysis of variance is carried out on the values of the efficacies of transfection (LoglO(fg luciferase/mg protein)) and on the cell viability. It is possible to analyse the impact (on the transfection or cell viability) of the variation of one or several factors by applying a mono- or multifactorial analysis of variance, respectively. The method used to compare the means is the HSD (honestly significant difference) intervals by Tukey.

[3] = Size and polydispersion of white homogenous nanospheres (quasi-elastic diffusion of light), physical stability over time; format: physicochemical
Experimental: The method used to prepare white homogenous nanospheres consists in introducing an organic phase of acetone (or tetrahydrofurane) and an amphiphilic cyclodextrin derivative from the invention (1 mg·mL^−1) in an aqueous phase of equivalent volume or a double volume (distilled water), under magnetic stirring (500 r.p.m.) at 25° C. After nanoprecipitation, the organic solvent is eliminated under reduced pressure at +35° C. The aqueous suspension presenting an opalescent to milky appearance (according to the products used) is then concentrated until the final volume desired is obtained, then filtered on a 0.8 μm filter (Millex AA, Millipore, France).
The colloid suspensions are then characterised as regards the granulometry (mean size and polydisperion) and, when they incorporate loaded amphiphilic cyclodextrins, by their zeta potential. The characterisation is carried out using the following methods:
The quasi-elastic diffusion of light is used. A Zetasizer 3000 apparatus equipped with a K7132 correlator (Malvern Instruments, RU) was used. The conditions for measurement are as follows: angle of detection 90°, temperature 25±0.1° C., apparent viscosity 0.89 mPa·s. Before measuring the size, samples are diluted in distilled water if necessary. The hydrodynamic diameter (mean Z) and polydispersion index (PI) of the nanoparticles in suspension are calculated in intensity by the cumulant method by carrying out 3 measurements on the same sample. The value of the hydrodynamic diameter is calculated using the measurement of the translational coefficient of diffusion of particles with Brownian movement. An NanoZS apparatus (Malvern Instruments) was also used to measure the size of the nanocapsules. In the same way, the samples are diluted before measurement, if necessary in water added to Montanox 80 (trade mark).
The studies on the physical stability of particles were carried out over periods ranging from 1 month to 8 months. The corresponding data for a series of amphiphilic cyclodextrins in the invention are indicated in Table 1 providing the granulometric characteristics (mean size and polydispersion index or mean PI), with evolution over time, of different homogenous nanospheres derived from the compounds indicated in the left column, the reference number for said compounds corresponding to those of the compounds described in the above examples.

Compound: CCCCCC(=O)O[C@@H]1[C@@H](OC(=O)CCCCC)[C@H]2O[C@H]3[C@H](OC(=O)CCCCC)[C@@H](OC(=O)CCCCC)[C@@H](O[C@H]4[C@H](OC(=O)CCCCC)[C@@H](OC(=O)CCCCC)[C@@H](O[C@H]5[C@H](OC(=O)CCCCC)[C@@H](OC(=O)CCCCC)[C@@H](O[C@H]6[C@H](OC(=O)CCCCC)[C@@H](OC(=O)CCCCC)[C@@H](O[C@H]7[C@H](OC(=O)CCCCC)[C@@H](OC(=O)CCCCC)[C@@H](O[C@H]8[C@H](OC(=O)CCCCC)[C@@H](OC(=O)CCCCC)[C@@H](O[C@@H]1[C@@H](CSCCNC(=S)NCCN)O2)O[C@@H]8CSCCNC(=S)NCCN)O[C@@H]7CSCCNC(=S)NCCN)O[C@@H]6CSCCNC(=S)NCCN)O[C@@H]5CSCCNC(=S)NCCN)O[C@@H]4CSCCNC(=S)NCCN)O[C@@H]3CSCCNC(=S)NCCN.Cl.Cl.Cl.Cl.Cl.Cl.Cl [compound no. 16, heptakis[6-desoxy-6-(2-(N′-(2-aminoethyl)thioureido)ethylthio)-2,3-di-O-hexanoyl]cyclomaltoheptaose heptachlorhydrate]
- accessibility of the DNA at the intercalation by ethidium bromide (plasmid pTG11236): no longer accessible
- levels of transfection compared with N/P 10 polyplexes formulated with PEI (BNL-CL2 cells [1]): equal
- levels of transfection, times higher than those with naked DNA (BNL-CL2 cells [1]): about 10,000 times
- cell viability compared with PEI/DNA polyplexes at the same N/P ratios (BNL-CL2 cells [2]): significantly higher
- cell viability after transfection (BNL-CL2 cells [2]): excellent

Compound: CCCCCC(=O)OC1C2OC(CO)C(OC3OC(CO)C(OC4OC(CO)C(OC5OC(CO)C(OC6OC(CSCCNC(=S)NCCSCC7OC8OC9C(CO)OC(OC%10C(CO)OC(OC%11C(CO)OC(OC%12C(CO)OC(OC%13C(CO)OC(OC%14C(CO)OC(OC7C(O)C8O)C(O)C%14O)C(O)C%13O)C(O)C%12O)C(O)C%11O)C(O)C%10O)C(O)C9O)C(OC7OC(CO)C(OC8OC(CO)C(O2)C(OC(=O)CCCCC)C8OC(=O)CCCCC)C(OC(=O)CCCCC)C7OC(=O)CCCCC)C(OC(=O)CCCCC)C6OC(=O)CCCCC)C(OC(=O)CCCCC)C5OC(=O)CCCCC)C(OC(=O)CCCCC)C4OC(=O)CCCCC)C(OC(=O)CCCCC)C3OC(=O)CCCCC)C1OC(=O)CCCCC (stereo not shown) [compound no. 26]
- Mean size ± standard deviation (n = 3) ([3]; initial): 100 ± 20 nm
- PI (polydispersion index) ([3]; initial): 0.06

Compound: heptakis(6-azido-6-desoxy-2,3-di-0-myristoyl)cyclomaltoheptaose [compound no. 6]
- IP (polydispersion index) ([3]; 3 months): 0.06
- Mean size ± standard deviation (n = 3) ([3]; 3 months): 157 ± 8 nm
- IP (polydispersion index) ([3]; 6 months): 0.04
- Mean size ± standard deviation (n = 3) ([3]; 6 months): 198 ± 12 nm
- Mean size ± standard deviation (n = 3) ([3]; initial): 171 ± 9 nm
- PI (polydispersion index) ([3]; initial): 0.03

Compound: heptakis[6-(2-aminoethylthio)-6-desoxy-2,3-di-O-hexanoyl]cyclomaltoheptaose heptachlorhydrate [compound no. 8]
- accessibility of the DNA at the intercalation by ethidium bromide (plasmid pTG11236): partially accessible
- complexation of the DNA (absence of DNA bands) (plasmid pTG11236; N/P ratio≧10, plasmid pTG11236): total complexation
- cell viability compared with PEI/DNA polyplexes at the same N/P ratios (BNL-CL2 cells [2]): significantly higher
- cell viability after transfection (BNL-CL2 cells [2]): excellent

Compound: heptakis[6-(2-tert-butoxycarbonylaminoethylthio)-6-desoxy-2,3-di-O-myristoyl]cyclomaltoheptaose [compound no. 10]
- IP (polydispersion index) ([3]; 3 months): 0.07
- Mean size ± standard deviation (n = 3) ([3]; 3 months): 207 ± 1 nm
- IP (polydispersion index) ([3]; 6 months): 0.32
- Mean size ± standard deviation (n = 3) ([3]; 6 months): 269 ± 64 nm
- Mean size ± standard deviation (n = 3) ([3]; initial): 212 ± 14 nm
- PI (polydispersion index) ([3]; initial): 0.11

Compound: heptakis[6-desoxy-2,3-di-0-myristoyl-6-(2-isothiocyanatoethylthio)]cyclomaltoheptaose [compound no. 12]
- Mean size ± standard deviation (n = 3) ([3]; initial): 72 ± 32 nm
- PI (polydispersion index) ([3]; initial): 0.31
